Experiment in all cases: Disc diffusion of non-formulated compounds
Common to all, as to format: cell-based

Test [1] concerns Staphylococcus aureus ATCC 13709. Conditions: ATCC13709, non-formulated compound, 30 μg/disc, S. aureus ATCC 13709 on TSA, 6.3 mm disc = no inhibition zone, read-out: Zone Diameter (nearest whole mm). As for the experimental part:
(§1) The diffusion assays on a compound of this invention were performed according to NCCLS Guidelines (Performance Standards for Antimicrobial Susceptibility Testing, M100-S12 vol. 22 and Performance Standards for Antimicrobial Disk Susceptibility Tests, M2-A7 vol. 20) with the following modifications: Generally, diffusion of the drug from the inoculation site (the disk or the well, as the case may be) through the agar creates a concentration gradient of the test compound. Bacterial growth is inhibited by the drug, creating a zone of inhibition. […] The activity of the compound was determined by measurement of the zone of inhibition surrounding the disk. The results are provided in Tables C, D, and E. The diffusion results of Table C measure the diffusion of free compound. The diffusion results of Tables D and E measure the diffusion of compound formulated into a cream.

Test [2] deals with Enterococcus faecalis ATCC 29212. Particulars: ATCC29212, non-formulated compound, 30 μg/disc, E. faecalis ATCC 29212 on TSA + 5% Sheep Blood, 6.3 mm disc = no inhibition zone, read-out: Zone Diameter (nearest whole mm). Here is the method:
as §1

Test [3] relates to Streptococcus pneumoniae ATCC 49619. Conditions: ATCC49619, non-formulated compound, 30 μg/disc, S. pneumoniae ATCC 49619 on TSA + 5% Sheep Blood, 6.3 mm disc = no inhibition zone, read-out: Zone Diameter (nearest whole mm). As for the experimental part: as §1

Zone of inhibition data for one molecule are collected here from US7642245B2, “Antibacterial compounds having a (pyrrole carboxamide)-(benzamide)-(imidazole carboxamide) motif” (Oscient Pharmaceuticals Corporation, priority 2002, dated 2010).

As to `CN[C@H](CC(C)C)C(=O)N[C@H]1C(=O)N[C@@H](CC(N)=O)C(=O)N[C@H]2C(=O)N[C@H]3C(=O)N[C@H](C(=O)N[C@H](C(=O)O)c4cc(O)cc(O)c4-c4cc3ccc4O)[C@H](O)c3ccc(c(Cl)c3)Oc3cc2cc(c3O[C@@H]2O[C@H](CO)[C@@H](O)[C@H](O)[C@H]2O[C@H]2C[C@](C)(N)[C@H](O)[C@H](C)O2)Oc2ccc(cc2Cl)[C@H]1O` [Vancomycin], the zone of inhibition at 30 µg/disc was 15 mm in test [1], 15 mm in test [2] and 19 mm in test [3].
